System: volunteers with CUD
Assay: Phase 2a study, subjective effects of smoked cannabis (VAS, CRF)
Format: in vivo, human
Conditions: for reduction of cannabis' positive subjective effects compared to placebo: Phase 2a
Protocol: Participants, in groups of 3−4, completed two 5-d inpatient periods (first period ‘A’ and second period ‘B’) separated by a ≥ 14-d outpatient washout. During the two testing periods, participants received AEF0117 or matching placebo in counterbalanced order (two dosing sequences: AEF0117 first or placebo first). Participants took capsules at 9:00 each day and then smoked a controlled amount of cannabis (approximately 67 mg of THC smoked over 6 min) 3.5 h later (12:30). Ratings of the subjective effects of cannabis were done five times after cannabis administration (20 min, 40 min, 60 min, 90 min and 120 min after cannabis) using a VAS (0–100 mm). […] Participants were told that the cannabis strength could vary from day to day and between participants but that the cannabis they each received at 12:30 that day was the strength available for self-administration that day.
The primary endpoint measuring the good subjective effect of cannabis related to addiction was an ‘Intoxication’ subscale based on a cluster analysis of the 44-item VAS[22], comprising the arithmetic mean of two items: ‘I feel a Good Effect’ and ‘I feel High’[22]. The positive subjective effects of cannabis were further assessed by individual items on the Cannabis Rating Form (CRF)[23], where participants rated the cannabis that they had most recently smoked in terms of ‘Cannabis Cigarette Liking’ and ‘Felt Good Cannabis Effect’ (key secondary endpoints) using a VAS. Cannabis self-administration was evaluated by measuring the number of puffs purchased at each timepoint (key secondary endpoint).
Data from the first dose level were reviewed by the Data Safety Monitoring Board before ascending to the next dose level.
Ratings of subjective effects of cannabis were performed using multiple items from two different instruments: (1) the 44-item VAS[22] and (2) the CRF[23]. Both instruments used visual analog scales (from 0 mm to 100 mm) to measure subjective effects. […] The subscale of the 44-item VAS was initially named the ‘Good Cannabis Effect’ subscale. Before starting the statistical analysis, this subscale was renamed ‘Intoxication’ subscale to avoid confusion with a key secondary endpoint on the CRF labeled ‘Felt Good Cannabis Effect’.
On each study day (days 1–5), at approximately 12:30, participants received an experimenter-administered ‘sample’ of cannabis (two cannabis cigarettes of approximately 800 mg, 7% THC, provided by NIDA). They were guided by an investigator through smoking a total of six 5-s inhalations using a paced-puff smoking procedure, where inhalation duration, time spent holding smoke in the lungs and inter-puff interval were timed. […] To capture a full timecourse of cannabis effects, participants completed the 44-item VAS and a CRF at 12:50, 13:10, 13:30, 14:[…].
As specified in the SAP, the statistical analyses employed an MMRM analysis using the REML as estimation method and structured covariance matrix with compound symmetry; the model included as factors and covariates: sequence, dose, treatment, time and days as fixed effects and subject within sequence as random effect.
Based on the SAP, the following analytical steps depending on results of the various analyses were undertaken. The primary and key secondary endpoints were first analyzed with a global crossover MMRM analysis (using combined cohorts: 0.06 mg + 1 mg).

[1] = global crossover, 0.06 mg, 20 min after THC
[2] = global crossover, 0.06 mg, 40 min after THC
[3] = global crossover, 0.06 mg, 60 min after THC
[4] = global crossover, 0.06 mg, 90 min after THC
[5] = global crossover, 0.06 mg, 105 min after THC
[6] = global crossover, 1 mg, 20 min after THC
[7] = global crossover, 1 mg, 40 min after THC
[8] = global crossover, 1 mg, 60 min after THC
[9] = global crossover, 1 mg, 90 min after THC
[10] = global crossover, 1 mg, 105 min after THC
[11] = parallel group (period A), 0.06 mg, 20 min after THC
[12] = parallel group (period A), 0.06 mg, 40 min after THC
[13] = parallel group (period A), 0.06 mg, 60 min after THC
[14] = parallel group (period A), 0.06 mg, 90 min after THC
[15] = parallel group (period A), 0.06 mg, 105 min after THC
[16] = parallel group (period A), 1 mg, 20 min after THC
[17] = parallel group (period A), 1 mg, 40 min after THC
[18] = parallel group (period A), 1 mg, 60 min after THC
[19] = parallel group (period A), 1 mg, 90 min after THC
[20] = parallel group (period A), 1 mg, 105 min after THC

## COc1ccc(CO[C@H]2CC[C@@]3(C)C(=CC[C@H]4[C@@H]5CC[C@H](C(C)=O)[C@@]5(C)CC[C@@H]43)C2)cc1 [AEF0117, 3β-(4-methoxybenzyloxy)pregn-5-en-20-one]
0.06 mg, parallel group analysis, period A
  cannabis ratings: significant reduction
1 mg, global crossover MMRM
  'Felt Good Cannabis Effect' item on the CRF: significantly reduced
  ratings on the 'Intoxication' subscale of the 44-item VAS: significantly reduced
0.06 mg
  reduction of cannabis' positive subjective effects compared to placebo: 19%
1 mg
  reduction of cannabis' positive subjective effects compared to placebo: 38%
[1]
  Cannabis cigarette liking item, mean: 76.2 mm
  Felt good cannabis effect item, mean: 77.9 mm
  Intoxication subscale, mean: 63.7 mm
[2]
  Cannabis cigarette liking item, mean: 74.9 mm
  Felt good cannabis effect item, mean: 76.1 mm
  Intoxication subscale, mean: 58.8 mm
[3]
  Cannabis cigarette liking item, mean: 72.6 mm
  Felt good cannabis effect item, mean: 72.7 mm
  Intoxication subscale, mean: 53.9 mm
[4]
  Cannabis cigarette liking item, mean: 73.5 mm
  Felt good cannabis effect item, mean: 75.8 mm
  Intoxication subscale, mean: 47.1 mm
[5]
  Cannabis cigarette liking item, mean: 73.2 mm
  Felt good cannabis effect item, mean: 75.0 mm
  Intoxication subscale, mean: 44.4 mm
[6]
  Cannabis cigarette liking item, mean: 61.7 mm
  Felt good cannabis effect item, mean: 66.8 mm
  Intoxication subscale, mean: 66.8 mm
[7]
  Cannabis cigarette liking item, mean: 57.8 mm
  Felt good cannabis effect item, mean: 62.4 mm
  Intoxication subscale, mean: 61.5 mm
[8]
  Cannabis cigarette liking item, mean: 54.8 mm
  Felt good cannabis effect item, mean: 58.0 mm
  Intoxication subscale, mean: 57.2 mm
[9]
  Cannabis cigarette liking item, mean: 54.0 mm
  Felt good cannabis effect item, mean: 56.1 mm
  Intoxication subscale, mean: 48.2 mm
[10]
  Cannabis cigarette liking item, mean: 54.4 mm
  Felt good cannabis effect item, mean: 54.7 mm
  Intoxication subscale, mean: 43.7 mm
[11]
  Cannabis cigarette liking item, mean: 68.3 mm
  Felt good cannabis effect item, mean: 73.0 mm
  Intoxication subscale, mean: 57.1 mm
[12]
  Cannabis cigarette liking item, mean: 65.5 mm
  Felt good cannabis effect item, mean: 70.2 mm
  Intoxication subscale, mean: 50.9 mm
[13]
  Cannabis cigarette liking item, mean: 62.3 mm
  Felt good cannabis effect item, mean: 65.7 mm
  Intoxication subscale, mean: 44.4 mm
[14]
  Cannabis cigarette liking item, mean: 61.8 mm
  Felt good cannabis effect item, mean: 67.4 mm
  Intoxication subscale, mean: 38.0 mm
[15]
  Cannabis cigarette liking item, mean: 63.1 mm
  Felt good cannabis effect item, mean: 68.2 mm
  Intoxication subscale, mean: 37.8 mm
[16]
  Cannabis cigarette liking item, mean: 63.9 mm
  Felt good cannabis effect item, mean: 67.9 mm
  Intoxication subscale, mean: 67.0 mm
[17]
  Cannabis cigarette liking item, mean: 59.3 mm
  Felt good cannabis effect item, mean: 60.6 mm
  Intoxication subscale, mean: 58.9 mm
[18]
  Cannabis cigarette liking item, mean: 54.5 mm
  Felt good cannabis effect item, mean: 53.3 mm
  Intoxication subscale, mean: 54.5 mm
[19]
  Cannabis cigarette liking item, mean: 55.7 mm
  Felt good cannabis effect item, mean: 50.7 mm
  Intoxication subscale, mean: 45.5 mm
[20]
  Cannabis cigarette liking item, mean: 55.9 mm
  Felt good cannabis effect item, mean: 52.3 mm
  Intoxication subscale, mean: 40.8 mm

— publication PMC10287566, “Signaling-specific inhibition of the CB1 receptor for cannabis use disorder: phase 1 and phase 2a randomized trials” (Nature Medicine, 2023)
